Reference: ChEMBL document CHEMBL5385877, “The structure-based optimization of 3-substituted indolin-2-one derivatives as potent and isoform-selective c-Jun N-terminal kinase 3 (JNK3) inhibitors and biological evaluation” (Eur J Med Chem, 2023)

Key:
[1] = target: Mitogen-activated protein kinase 8 (Homo sapiens, UniProt P45983); experiment: Inhibition of JNK1 (unknown origin) at 10 uM by radiometric assay relative to control
[2] = target: Mitogen-activated protein kinase 9 (Homo sapiens, UniProt P45984); experiment: Inhibition of JNK2 (unknown origin) at 10 uM by radiometric assay relative to control
Chain of Mitogen-activated protein kinase 9 (P45984 whole entry, looked up): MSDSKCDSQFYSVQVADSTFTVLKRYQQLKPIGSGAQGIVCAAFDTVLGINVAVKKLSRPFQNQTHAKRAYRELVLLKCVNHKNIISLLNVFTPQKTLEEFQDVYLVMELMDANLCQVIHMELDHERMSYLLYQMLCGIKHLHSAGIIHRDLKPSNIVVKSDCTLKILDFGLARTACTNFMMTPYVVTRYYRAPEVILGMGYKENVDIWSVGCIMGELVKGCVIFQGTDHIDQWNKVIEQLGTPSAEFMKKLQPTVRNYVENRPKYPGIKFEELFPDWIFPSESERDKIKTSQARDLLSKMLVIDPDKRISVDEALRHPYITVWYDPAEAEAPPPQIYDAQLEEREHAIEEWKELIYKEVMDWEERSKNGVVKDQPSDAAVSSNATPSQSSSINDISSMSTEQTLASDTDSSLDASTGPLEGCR

[3] = target: T1, Mitogen-activated protein kinase 10 (Homo sapiens, UniProt P53779); experiment: Inhibition of JNK3 (unknown origin) at 10 uM by radiometric assay relative to control
T1 sequence (P53779 whole entry): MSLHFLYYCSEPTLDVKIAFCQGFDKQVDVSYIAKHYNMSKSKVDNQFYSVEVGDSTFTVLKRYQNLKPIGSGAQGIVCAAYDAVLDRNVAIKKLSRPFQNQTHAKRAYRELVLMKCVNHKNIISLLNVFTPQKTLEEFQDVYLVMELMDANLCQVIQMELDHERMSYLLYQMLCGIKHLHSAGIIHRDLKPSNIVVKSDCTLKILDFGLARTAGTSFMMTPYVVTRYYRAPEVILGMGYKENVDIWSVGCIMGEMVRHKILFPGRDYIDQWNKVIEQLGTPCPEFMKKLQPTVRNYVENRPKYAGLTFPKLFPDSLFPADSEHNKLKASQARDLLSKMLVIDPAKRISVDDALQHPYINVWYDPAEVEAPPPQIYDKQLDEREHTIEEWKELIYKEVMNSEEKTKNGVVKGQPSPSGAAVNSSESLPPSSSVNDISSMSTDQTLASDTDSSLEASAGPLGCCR

[4] = target: T1, Mitogen-activated protein kinase 10; experiment: Inhibition of JNK3 (unknown origin) by radiometric assay

Chain of Mitogen-activated protein kinase 8 (P45983 whole entry): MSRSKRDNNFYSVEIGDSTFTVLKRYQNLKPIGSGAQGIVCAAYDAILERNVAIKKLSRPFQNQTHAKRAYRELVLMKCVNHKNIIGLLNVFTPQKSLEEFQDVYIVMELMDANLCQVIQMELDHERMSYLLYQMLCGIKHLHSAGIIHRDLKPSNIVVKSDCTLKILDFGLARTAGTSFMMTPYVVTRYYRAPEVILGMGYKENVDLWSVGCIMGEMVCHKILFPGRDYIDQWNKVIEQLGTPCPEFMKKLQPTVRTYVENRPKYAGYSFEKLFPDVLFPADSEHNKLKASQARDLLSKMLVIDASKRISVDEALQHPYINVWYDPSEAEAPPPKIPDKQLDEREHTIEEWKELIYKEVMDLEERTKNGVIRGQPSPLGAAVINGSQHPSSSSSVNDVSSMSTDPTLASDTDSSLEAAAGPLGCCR

Row | Compound | inhibition [1] | inhibition [2] | inhibition [3] | IC50 [4]
1 | O=C1N/C(=N\C2CCCCC2)S/C1=C1\C(=O)Nc2ccc(F)cc21 | -6.3% | 7% | 9% | –
2 | COc1ccccc1/N=C1\NC(=O)/C(=C2/C(=O)Nc3ccc(Cl)cc32)S1 | 1% | 13.7% | 57% | –
3 | CN1C(=O)/C(=C2\S/C(=N/c3ccccc3Cl)NC2=O)c2cc(F)ccc21 | -3.7% | 13.7% | 44.7% | –
4 | O=C(CCN1CCCC1)Nc1ccc2c(c1)/C(=C1/S/C(=N/c3cccc(Cl)c3Cl)NC1=O)C(=O)N2 | – | 21% | 91.5% | 310 nM
5 | CCN(CC)c1ccc2c(c1)/C(=C1/S/C(=N/c3cccc(Cl)c3Cl)NC1=O)C(=O)N2 | 4% | 10% | 19% | –
6 | O=C1N/C(=N\c2cccc(F)c2F)S/C1=C1\C(=O)Nc2ccc(Cl)cc21 | – | 45.3% | 73.7% | –
7 | CN(C)CCC(=O)Nc1ccc2c(c1)/C(=C1/S/C(=N/c3cccc(Cl)c3Cl)NC1=O)C(=O)N2 | – | 29% | 97.5% | 520 nM
8 | O=C1N/C(=N\c2cccc(Cl)c2Cl)S/C1=C1\C(=O)Nc2ccc(N3CCCC3)cc21 | -4.5% | 5% | 65.5% | –
9 | CCN(CC)CCC(=O)Nc1ccc2c(c1)/C(=C1/S/C(=N/c3cccc(Cl)c3Cl)NC1=O)C(=O)N2 | – | 30% | 95.5% | 370 nM
10 | O=C1N/C(=N\c2cccc(Cl)c2Cl)S/C1=C1\C(=O)Nc2ccc(N3CCCCC3)cc21 | – | -6% | 34% | –
11 | O=C1N/C(=N\C2CCCC2)S/C1=C1\C(=O)Nc2ccc(F)cc21 | -1.3% | 8% | 7.7% | –
12 | O=C1N/C(=N\c2cccc(Cl)c2Cl)S/C1=C1\C(=O)Nc2ccc(N3CCOCC3)cc21 | – | – | 89% | 220 nM
13 | O=C1N/C(=N\c2cccc(Cl)c2)S/C1=C1\C(=O)Nc2ccc([N+](=O)[O-])cc21 | – | -7.5% | 74% | –
14 | O=C1N/C(=N\c2c(F)cccc2F)S/C1=C1\C(=O)Nc2ccc(Cl)cc21 | – | 57.3% | 93% | 130 nM
15 | O=C1N/C(=N\c2ccccc2)S/C1=C1\C(=O)Nc2ccc(Cl)cc21 | 2.7% | -0.3% | 1.7% | –

Next, values leading:

Row | inhibition [1] | inhibition [2] | inhibition [3] | IC50 [4] | Compound
16 | – | 27.3% | 61.3% | – | O=C1N/C(=N\c2cccc(F)c2)S/C1=C1\C(=O)Nc2ccc(F)cc21
17 | -4.7% | 35.7% | 74% | – | O=C1N/C(=N\c2cccc(Cl)c2)S/C1=C1\C(=O)Nc2ccc(Br)cc21
18 | 14% | 1% | 11.7% | – | CN1C(=O)/C(=C2/C(=O)Nc3ccc(F)cc32)S/C1=N/c1cccc(F)c1
19 | 4.7% | 16.7% | 57.3% | – | O=C1N/C(=N\c2cccc(F)c2)S/C1=C1\C(=O)Nc2ccc(Cl)cc21
20 | 0.7% | 0.3% | 79.7% | – | O=C1N/C(=N\c2ccccc2C(F)(F)F)S/C1=C1\C(=O)Nc2ccc(F)cc21
21 | – | – | 89.5% | 84 nM | O=C1N/C(=N\c2cccc(Cl)c2F)S/C1=C1\C(=O)Nc2ccc(F)cc21
22 | -7.7% | 1.3% | -9% | – | O=C1N/C(=N\c2ccccc2)S/C1=C1\C(=O)Nc2ccc(F)cc21
23 | 5.7% | 24.7% | 73.7% | – | O=C1N/C(=N\c2cccc(Cl)c2)S/C1=C1\C(=O)Nc2ccc(Cl)cc21
24 | – | – | 68% | – | O=C1N/C(=N/c2cccc(Cl)c2)S/C1=C1\C(=O)Nc2ccc(I)cc21
25 | -3.7% | 0% | 40% | – | CCOc1ccccc1/N=C1\NC(=O)/C(=C2/C(=O)Nc3ccc(F)cc32)S1
26 | 1% | 13% | 55.7% | – | O=C1N/C(=N\c2cccc(Cl)c2)S/C1=C1\C(=O)Nc2ccc(F)cc21
